From patent US20240301409A1, “Chemically Modified Small Activating RNA” (RACTIGEN THERAPEUTICS, priority 2021, published 2024) come the findings set out here.

Oligonucleotides are written 5' to 3', each unit as a sugar letter and its base; * is a phosphorothioate linkage, no mark a phosphodiester; rarer units and linkages stand in square brackets, end groups in braces. Plain capitals give the bases only. m = 2'-O-methyl; r = 2'-OH (RNA); f = 2'-fluoro Some results are limits rather than exact numbers.

The test system of one series is J82 cells. Nature of the series: Cellular proliferation assay (CCK8) in J82 cells, combined with Mitomycin C or valrubicin. The series is classed as cell-based, human. On the procedure:
J82 cells were transfected with RAG1-40-31 at concentrations of 0.1, 0.5, 1, 5, 10, 25 and 50 nM for 24 hours, and then Mitomycin C at concentrations of 1, 10, 100, 1000 and 10000 nM was added. The combined treatment was carried out with concentrations in pairs. After treatment, the proliferation of cells was detected using CCK8 kit. FIGS. 14A-14B show the relative proliferation proportion of J82 cells after the combined treatment with chemically modified saRNA RAG1-40-31 and valrubicin. […] Control and DMSO are the blank transfection control and the solvent for dilution control, respectively.
J82 cells were transfected with RAG1-40-31 at concentrations of 0.1, 0.5, 1, 5, 10, 25 and 50 nM for 24 hours, and then valrubicin at concentrations of 1, 10, 100, 1000 and 10000 nM was added. The combined treatment was carried out with concentrations in pairs. After treatment, the cellular proliferation was detected by CCK8 kit. FIGS. 15A-15B show the relative proliferation proportion of T24 cells after the combined treatment with chemically modified saRNA RAG1-40-31 and Mitomycin C. […] Control and DMSO are the blank transfection control and the solvent for dilution control, respectively.
(§1) Human bladder cancer cells Ku-7-LG (ATCC), J82 (ATCC) and T24 (ATCC) were cultured in McCoy medium (Gibco) comprising 10% calf serum (Sigma-Aldrich) and 1% penicillin/Streptomycin (Gibco). Cells were cultured at 37° C. under 5% CO2. Ku-7-LG, J82 and T24 cells were plated into 12-well plates at 10×10^4 cells per well, transfected with the small RNA at a concentration of 10 nM (unless otherwise specified) for three days, using RNAiMax (Invitrogen, Carlsbad, CA) according to the manufacturer's instructions. Two replicate wells were set for each treatment.
(§2) Cells were plated in a 96-well plate at 2˜4×10^3 cells/well, cultured overnight, and transfected with the oligonucleotide duplexes. Three days after transfection, CCK8 (Dojindo) was used to detect cellular proliferation following manufacturer's instructions. The experimental steps are briefly described as follows: 10 μL of CCK8 solution was added to each well, incubated at 37° C. for 1 hour, and then the absorbance at 450 nm was measured using a microplate reader.
In this example, chemically modified saRNA RAG1-40-31 was used in combination with clinical chemical agents to evaluate the suppressing effect of the combined agents on cancer cells.

The next series relates to T24 cells. Nature of the series: Cellular proliferation assay (CCK8) in T24 cells, alone and combined with Mitomycin C or valrubicin. The series is classed as cell-based, human.
Description: After the transfection, the number of viable cells was detected with a CCK8 kit, and plotted as the percentage of the blank control treatment group. […] A transfection sample without oligonucleotide served as a blank control. Non-specific duplex (dsCon) transfected sample served as a negative control. Data are presented as mean±SD of at least two independent experiments. The values below the dashed line indicate stronger growth inhibitory activity compared to duplex Rag1-40 without chemical modification.
T24 cells were transfected with RAG1-40-31 at concentrations of 0.1, 0.5, 1, 5, 10, 25 and 50 nM for 24 hours, and then Mitomycin C was added at concentrations of 1, 10, 100, 1000 and 10000 nM. The combined treatment was carried out with concentrations in pairs. After treatment, the cellular proliferation was detected by CCK8 kit. FIGS. 16A-16B show the relative proliferation proportion of T24 cells after the combined treatment with chemically modified saRNA RAG1-40-31 and valrubicin. […] Control and DMSO are the blank transfection control and the solvent for dilution control, respectively.
T24 cells were transfected with RAG1-40-31 at concentrations of 0.1, 0.5, 1, 5, 10, 25 and 50 nM for 24 hours, and then valrubicin at concentrations of 1, 10, 100, 1000 and 10000 nM was added. The combined treatment was carried out with concentrations in pairs. After treatment, the cellular proliferation was detected by CCK8 kit.
as §1, §2
It is known that p21 induction by saRNA is that a variety of tumor suppressor factors such as p21 protein suppress the proliferation of cancer cells. To evaluate the effect of chemically modified saRNAs on the function of cancer cells, cells (Ku-7-LG and T24) were transfected with 10 nM unmodified and modified saRNAs for 72 hours, and the cellular proliferation was determined by CCK8. […] Furthermore, there was a correlation between RNA activating activity (FIGS. 7A-7B) and suppression of cellular proliferation activity (FIGS. 8A-8B). Strong p21 activators are usually also strong cytostatics.

The target of the next series is T1, RNase A (Bos taurus, UniProt P61823).
T1 sequence (P61823 27-150): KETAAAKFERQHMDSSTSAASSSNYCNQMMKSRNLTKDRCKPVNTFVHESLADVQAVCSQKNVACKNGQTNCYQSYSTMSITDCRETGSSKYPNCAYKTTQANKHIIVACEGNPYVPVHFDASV

Series [1] deals with Rag1-40 target sequence in the 3′ UTR of firefly luciferase, COS-1 cells.

As to `CO[C@@]12[C@H](COC(N)=O)C3=C(C(=O)C(C)=C(N)C3=O)N1C[C@@H]1N[C@@H]12` [MMC, Mitomycin C, reference compound], the “Relative proliferation proportion of J82 cells” value in the series on J82 cells (RAG1-40-31 0 nM + MMC 1 nM) was found to be 99.9%; in the series on J82 cells (RAG1-40-31 0 nM + MMC 10 nM), 99.9%; in the series on J82 cells (RAG1-40-31 0 nM + MMC 100 nM), 99.9%; in the series on J82 cells (RAG1-40-31 0 nM + MMC 1000 nM), 100.0%; in the series on J82 cells (RAG1-40-31 0 nM + MMC 10000 nM) it was 100.0%. The “Relative proliferation proportion of T24 cells” value in the series with T24 cells (RAG1-40-31 0 nM + MMC 1 nM), in the series with T24 cells (RAG1-40-31 0 nM + MMC 10 nM), in the series on T24 cells (RAG1-40-31 0 nM + MMC 100 nM), in the series on T24 cells (RAG1-40-31 0 nM + MMC 1000 nM) and with T24 cells (RAG1-40-31 0 nM + MMC 10000 nM) was 100.0% each time.
Consider `CCCCC(=O)OCC(=O)[C@]1(O)Cc2c(O)c3c(c(O)c2[C@@H](O[C@H]2C[C@H](NC(=O)C(F)(F)F)[C@H](O)[C@H](C)O2)C1)C(=O)c1c(OC)cccc1C3=O` [valrubicin, Valrubicin, reference compound], for which the “Relative proliferation proportion of J82 cells” value in the series on J82 cells (RAG1-40-31 0 nM + valrubicin 1 nM), in the series on J82 cells (RAG1-40-31 0 nM + valrubicin 10 nM), with J82 cells (RAG1-40-31 0 nM + valrubicin 100 nM), in the series with J82 cells (RAG1-40-31 0 nM + valrubicin 1000 nM) and in the series with J82 cells (RAG1-40-31 0 nM + valrubicin 10000 nM) was 100.0% each time. For the same molecule, the “Relative proliferation proportion of T24 cells” value in the series with T24 cells (RAG1-40-31 0 nM + valrubicin 1 nm), in the series on T24 cells (RAG1-40-31 0 nM + valrubicin 10 nm), in the series on T24 cells (RAG1-40-31 0 nM + valrubicin 100 nm), in the series on T24 cells (RAG1-40-31 0 nM + valrubicin 1000 nm) and in the series on T24 cells (RAG1-40-31 0 nM + valrubicin 10000 nm) was 100.0% in each case.
Regarding “Rag1-40-2: saRNA duplex: sense mCmCAACUCAUUCUCCAAGmUmC (SEQ ID NO 5); antisense fUACUfUGGAGAAfUGAGUfUGGfCA (SEQ ID NO 7) (sense CCAACUCAUUCUCCAAGUC; antisense UACUUGGAGAAUGAGUUGGCA; 2'-OMe and 2'-F modifications; modified_base (1)..(19) (1,2,18,19)=2′-O-methyl(2′-OMe); modified_base (1)..(20) (1,5,12,17,20)=2′-fluoro)”, in the series with RNase A, the “time to complete degradation” value was at most 24 h. Also, the “off-target effect compared to unmodified Rag1-40, in words” value in series [1] is recorded as “mitigated or similar off-target effects”.
Turning to “Rag1-40-4: saRNA duplex: sense mCmCAACUCAUUCUCCAAGmUmC (SEQ ID NO 5); antisense fUACUfUGGAGAAfUGAGUfUGG*fC*A (SEQ ID NO 9) (sense mCmCrArArCrUrCrArUrUrCrUrCrCrArArGmUmC; antisense fUrArCrUfUrGrGrArGrArAfUrGrArGrUfUrGrG*fC*rA)”, the “time to complete degradation” value with RNase A was at most 24 h. In addition, the “off-target effect compared to unmodified Rag1-40, in words” value in series [1] is “completely inhibited”.
As for “Rag1-40-6: saRNA duplex: sense mCmCAACUCAUUCUCCAAGmUmC (SEQ ID NO 5); antisense fU*A*fCfUfUGGAGAAfUGAGfUfUGG*fC*A (SEQ ID NO 11) (sense mCmCrArArCrUrCrArUrUrCrUrCrCrArArGmUmC; antisense fU*rA*fCfUfUrGrGrArGrArAfUrGrArGfUfUrGrG*fC*rA)”, in the series with RNase A, the “degradation of duplex at 96 hours” value is “little or no signs of degradation”. For the same molecule, the “off-target effect compared to unmodified Rag1-40, in words” value in series [1] is on record as “mitigated or similar off-target effects”.
In the same order, the values of “Rag1-40-7: saRNA duplex: sense mCmCAACUCAUUCUCCAAGmUmC (SEQ ID NO 5); antisense U*A*fCfUfUGGAGAAfUGAGfUfUGG*fC*A (SEQ ID NO 12) (sense mCmCrArArCrUrCrArUrUrCrUrCrCrArArGmUmC; antisense rU*rA*fCfUfUrGrGrArGrArAfUrGrArGfUfUrGrG*fC*rA)” are “little or no signs of degradation” and “mitigated or similar off-target effects”.
